Earlier results on one molecule are cited in patent US6689588B1, “Garlic alliinase covalently bound to carrier for continuous production of allician” (Yeda Research and Development Co. Ltd., priority 1996, dated 2004).

In one series the test system is bacteria, fungi, amebae. The conditions noted are these: Cavallito et al., 1944; Barone and Tansey, 1977; Mirelman et al., 1987.
For series [1] the following is noted: Cavallito et al., 1944.

Molecules are shown by their SMILES.

Take `C=CCS[S+]([O-])CC=C` (centres unmarked) [allicin, thio-2-propene-1-sulfinic acid S-allyl ester]: the antimicrobial activity result with bacteria, fungi, amebae is “antibacterial, antifungal and antiamebic activity”. For the same molecule, in series [1], the chemical stability result was “chemically unstable”.
